# Laboratory results as given in ChEMBL document CHEMBL1136135, “Synthesis of an amphiphilic tetraantennary mannosyl conjugate and incorporation into liposome carriers” (Bioorg Med Chem Lett, 2003).
# Several values for one entry are separate records, joined by “and”; a condition that tells them apart may be missing. Equal values may be shown once.
# Tests used:
# Liposome [1] = test: Mannose concentrations required for 50% turbidity reduction n the Surface of Liposomes; type: functional, subcellular
# Liposome [2] = test: Mannose concentrations required for 50% turbidity reduction on the Surface of Liposomes; type: functional, subcellular
Structure (SMILES),IC50 (Liposome [1]),IC50 (Liposome [2])
CCCCCCCC/C=C\CCCCCCCCOCC(COCCOCCOCCOCCNC(=O)C(CCCCNC(=O)C(CCCCNC(=O)COCCOCCS[C@@H]1O[C@H](CO)[C@@H](O)[C@@H](O)[C@@H]1O)NC(=O)COCCOCCS[C@@H]1O[C@H](CO)[C@@H](O)[C@@H](O)[C@@H]1O)NC(=O)C(CCCCNC(=O)COCCOCCS[C@@H]1O[C@H](CO)[C@@H](O)[C@@H](O)[C@@H]1O)NC(=O)COCCOCCS[C@@H]1O[C@H](CO)[C@@H](O)[C@@H](O)[C@@H]1O)OCCCCCCCC/C=C\CCCCCCCC (some centres not stated),20 mM and 30 mM and 50 mM,
CCCCCCCC/C=C\CCCCCCCCOCC(COCCOCCOCCOCCNC(=O)CCS[C@H]1OC(CO)[C@@H](O)[C@@H](O)C1O)OCCCCCCCC/C=C\CCCCCCCC (some centres not stated),,2 mM and 4 mM and 5 mM
